From patent US20070128217A1 (priority 2003, published 2007)

How the values were obtained:
[1] = system: control sera (pooled serum of ten healthy LUMC hospital workers; commercial negative donor pooled serum from the Dutch bloodbank); format: binding, human; set-up: Binding of Control serum LUMC to linear peptides / Binding of Control serum Blood-bank to linear peptides / Binding of Control serum LUMC to looped peptides / Binding of Control Serum Blood-Bank to Looped peptides / Binding of Control serum LUMC to linear peptides of the protein M of SARS-CoV Urbani / Binding of Control serum Blood-bank to linear peptides of the protein M of SARS-CoV Urbani / Binding of Control serum LUMC to looped peptides of the protein M of SARS-CoV Urbani / Binding of Control Serum Blood-Bank to Looped peptides of the protein M of SARS-CoV Urbani: unit not given here
[2] = system: rabbit serum obtained by immunizing a rabbit with the SARS-CoV strain Frankfurt 1; format: binding; set-up: Binding of a rabbit serum to linear peptides / Binding of a rabbit serum to looped peptides / Rabbit serum linear peptides / Rabbit serum looped peptides / Binding of a rabbit serum to linear peptides of protein N of SARS-CoV Urbani (Rabbit serum linear peptides) / Binding of a rabbit serum to looped/cyclic peptides of protein N of SARS-CoV Urbani (Rabbit serum looped peptides): unit not given here
[3] = system: antibodies in sera from SARS patients (sera 1a, 1b, 2, 6, 37, 62, London, SARS-yellow, SARS-green); format: binding, human; set-up: Binding of serum 6 to linear peptides of protein X1 of SARS-CoV Urbani / Binding of serum 37 to linear peptides of protein X1 of SARS-CoV Urbani / Binding of serum 6 to looped/cyclic peptide (PEPSCAN-ELISA) / Binding of serum 37 to looped/cyclic peptide (PEPSCAN-ELISA) / Binding of serum 37 to looped/cyclic peptides of protein X1 of SARS-CoV Urbani / Binding of serum 6 to linear peptides of protein X2 / Binding of serum 37 to linear peptides of protein X2 / Binding of serum 37 to looped/cyclic peptides of protein X2 of SARS-CoV Urbani / Binding of serum 6 to linear peptides of protein M of SARS-CoV Urbani / Binding of serum 37 to linear peptides of protein M of SARS-CoV Urbani / Binding of serum 6 to looped/cyclic peptides of protein M of SARS-CoV Urbani / Binding of serum 37 to looped/cyclic peptides of protein M of SARS-CoV Urbani / Binding of serum 6 to linear peptides of protein X3 of SARS-CoV Urbani / Binding of serum 37 to linear peptides of protein X3 of SARS-CoV Urbani / Binding of serum 37 to looped/cyclic peptides of protein X3 of SARS-CoV Urbani / Binding of serum 6 to linear peptides of protein X4 of SARS-CoV Urbani / Binding of serum 37 to linear peptides of protein X4 of SARS-CoV Urbani / Binding of serum 37 to looped/cyclic peptides of protein X4 of SARS-CoV Urbani / Binding of serum 6 to linear peptides of protein X5 of SARS-CoV Urbani / Binding of serum 37 to linear peptides of protein X5 of SARS-CoV Urbani / Binding of serum 37 to looped/cyclic peptides of protein X5 of SARS-CoV Urbani / Binding of serum 6 to linear peptides of protein N of SARS-CoV Urbani / Binding of serum 37 to linear peptides of protein N of SARS-CoV Urbani / Binding of serum 6 to linear peptide (PEPSCAN-ELISA) / Binding of serum 1a to looped/cyclic peptides of protein N of SARS-CoV Urbani / Binding of serum 1b to looped/cyclic peptides of protein N of SARS-CoV Urbani / Binding of serum 2 to looped/cyclic peptides of protein N of SARS-CoV Urbani / Binding of serum 6 to looped/cyclic peptides of protein N of SARS-CoV Urbani / Binding of serum 37 to looped/cyclic peptides of protein N of SARS-CoV Urbani / Binding of serum 62 to looped/cyclic peptides of protein N of SARS-CoV Urbani / Binding of serum London to looped/cyclic peptides of protein N of SARS-CoV Urbani / Binding of serum SARS-green to looped/cyclic peptides of protein N of SARS-CoV Urbani: unit not given here

KMLHSSSLTSLLKTH
0.9: Binding of serum London to linear peptides of protein X2 [3]
0.7: Binding of Control serum Blood-bank to linear peptides [1] | Binding of serum SARS-green to looped/cyclic peptides of protein X2 of SARS-CoV Urbani [3]
0.6: Binding of serum 1a to linear peptides of protein X2 [3] | Binding of serum 6 to linear peptides of protein X2 [3] | Binding of serum 62 to linear peptides of protein X2 [3] | Binding of serum SARS-green to linear peptides of protein X2 [3]
0.2: Binding of a rabbit serum to linear peptides [2] | Binding of a rabbit serum to looped peptides [2] | Binding of serum 2 to looped/cyclic peptides of protein X2 of SARS-CoV Urbani [3] | Binding of serum 6 to looped/cyclic peptides of protein X2 of SARS-CoV Urbani [3] | Binding of serum 37 to looped/cyclic peptides of protein X2 of SARS-CoV Urbani [3] | Binding of serum London to looped/cyclic peptides of protein X2 of SARS-CoV Urbani [3]
0.5: Binding of Control serum LUMC to linear peptides [1] | Binding of serum 1b to linear peptides of protein X2 [3] | Binding of serum 2 to linear peptides of protein X2 [3] | Binding of serum 37 to linear peptides of protein X2 [3]
0.3: Binding of Control Serum Blood-Bank to Looped peptides [1] | Binding of serum 1a to looped/cyclic peptides of protein X2 of SARS-CoV Urbani [3] | Binding of serum 62 to looped/cyclic peptides of protein X2 of SARS-CoV Urbani [3] | Binding of serum SARS-yellow to looped/cyclic peptides of protein X2 of SARS-CoV Urbani [3]
0.4: Binding of Control serum LUMC to looped peptides [1] | Binding of serum 1b to looped/cyclic peptides of protein X2 of SARS-CoV Urbani [3] | Binding of serum SARS-yellow to linear peptides of protein X2 [3]

KRWQLALYKGFQFIC
0.8: Binding of a rabbit serum to looped peptides [2] | Binding of serum 6 to looped/cyclic peptide (PEPSCAN-ELISA) [3]
0.3: Binding of serum SARS-green to looped/cyclic peptide (PEPSCAN-ELISA) [3]
0.2: Binding of serum London to linear peptides of protein X1 of SARS-CoV Urbani [3] | Binding of serum SARS-yellow to linear peptides of protein X1 of SARS-CoV Urbani [3]
0.1: Binding of a rabbit serum to linear peptides [2] | Binding of serum SARS-green to linear peptides of protein X1 of SARS-CoV Urbani [3]
0.5: Binding of Control serum LUMC to linear peptides [1] | Binding of serum 1b to linear peptides of protein X1 of SARS-CoV Urbani [3] | Binding of serum 2 to linear peptides of protein X1 of SARS-CoV Urbani [3] | Binding of serum 2 to looped/cyclic peptide (PEPSCAN-ELISA) [3] | Binding of serum 62 to linear peptides of protein X1 of SARS-CoV Urbani [3] | Binding of serum SARS-yellow to looped/cyclic peptide (PEPSCAN-ELISA) [3]
0.7: Binding of Control Serum Blood-Bank to Looped peptides [1] | Binding of Control serum LUMC to looped peptides [1]
0.4: Binding of serum 1b to looped/cyclic peptide (PEPSCAN-ELISA) [3]
1.1: Binding of serum London to looped/cyclic peptide (PEPSCAN-ELISA) [3]
0.6: Binding of Control serum Blood-bank to linear peptides [1] | Binding of serum 1a to linear peptides of protein X1 of SARS-CoV Urbani [3] | Binding of serum 1a to looped/cyclic peptide (PEPSCAN-ELISA) [3] | Binding of serum 6 to linear peptides of protein X1 of SARS-CoV Urbani [3] | Binding of serum 37 to linear peptides of protein X1 of SARS-CoV Urbani [3] | Binding of serum 37 to looped/cyclic peptide (PEPSCAN-ELISA) [3] | Binding of serum 62 to looped/cyclic peptide (PEPSCAN-ELISA) [3]
